Test results from ChEMBL document CHEMBL3352005, “Synthesis of a novel universal opioid receptor agonist with the 1,3,5-trioxazatriquinane skeleton and its pharmacologies” (Bioorg Med Chem Lett, 2014).
pEC50, pKi: −log10 of the molar value.

What was measured:
[1] = target: Delta-type opioid receptor (Mus musculus, UniProt P32300); experiment: Displacement of [3H]DPDPE from mouse whole brain DOR
Mu-type opioid receptor [2] = target: Mu-type opioid receptor (Mus musculus, UniProt P42866); experiment: Displacement of [3H]DAMGO from mouse whole brain MOR
Chain of Mu-type opioid receptor (Mus musculus, UniProt P42866) (P42866 whole entry): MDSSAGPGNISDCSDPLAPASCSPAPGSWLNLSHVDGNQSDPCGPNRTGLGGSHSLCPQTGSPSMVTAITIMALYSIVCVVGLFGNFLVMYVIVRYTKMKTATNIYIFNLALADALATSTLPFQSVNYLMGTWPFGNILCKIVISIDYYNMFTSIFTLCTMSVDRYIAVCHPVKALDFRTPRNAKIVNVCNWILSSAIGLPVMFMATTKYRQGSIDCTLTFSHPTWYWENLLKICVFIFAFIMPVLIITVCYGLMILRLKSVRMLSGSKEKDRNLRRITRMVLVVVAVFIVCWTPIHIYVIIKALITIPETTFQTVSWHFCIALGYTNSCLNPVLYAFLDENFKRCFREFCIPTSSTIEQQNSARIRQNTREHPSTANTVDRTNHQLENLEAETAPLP

[3] = target: Kappa-type opioid receptor (Cavia porcellus, UniProt P41144); experiment: Displacement of [3H]U-69593 from guinea pig cerebellum KOR
Chain of Kappa-type opioid receptor (Cavia porcellus, UniProt P41144) (P41144 whole entry): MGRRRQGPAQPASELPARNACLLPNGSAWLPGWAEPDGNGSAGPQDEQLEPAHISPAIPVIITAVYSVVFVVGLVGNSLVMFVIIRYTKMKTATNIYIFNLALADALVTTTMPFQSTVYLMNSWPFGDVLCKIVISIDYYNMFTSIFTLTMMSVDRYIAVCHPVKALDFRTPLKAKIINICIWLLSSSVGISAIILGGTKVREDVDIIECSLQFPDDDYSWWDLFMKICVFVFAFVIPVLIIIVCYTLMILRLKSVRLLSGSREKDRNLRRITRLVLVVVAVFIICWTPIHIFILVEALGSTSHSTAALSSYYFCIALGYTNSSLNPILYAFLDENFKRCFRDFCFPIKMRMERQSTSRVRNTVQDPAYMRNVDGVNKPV

[4] = target: T1, Kappa-type opioid receptor (Homo sapiens, UniProt P41145); experiment: Agonist activity at human KOR expressed in CHO cells by [35S]GTPgammaS binding assay; assay type: functional, cell-based
T1 sequence (P41145 whole entry): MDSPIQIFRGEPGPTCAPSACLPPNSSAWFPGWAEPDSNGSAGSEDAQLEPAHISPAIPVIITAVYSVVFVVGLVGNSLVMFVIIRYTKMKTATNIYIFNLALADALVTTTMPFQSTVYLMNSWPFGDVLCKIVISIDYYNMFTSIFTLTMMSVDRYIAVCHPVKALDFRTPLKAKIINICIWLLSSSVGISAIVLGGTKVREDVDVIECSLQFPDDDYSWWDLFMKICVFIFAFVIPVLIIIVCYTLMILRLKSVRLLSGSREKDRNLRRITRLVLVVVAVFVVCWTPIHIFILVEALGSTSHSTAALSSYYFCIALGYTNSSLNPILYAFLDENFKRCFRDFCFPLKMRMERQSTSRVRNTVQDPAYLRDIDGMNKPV

Mu-type opioid receptor [5] = target: T2, Mu-type opioid receptor (Homo sapiens, UniProt P35372); experiment: Agonist activity at human MOR expressed in CHO cells by [35S]GTPgammaS binding assay; assay type: functional, cell-based
T2 sequence (P35372 whole entry): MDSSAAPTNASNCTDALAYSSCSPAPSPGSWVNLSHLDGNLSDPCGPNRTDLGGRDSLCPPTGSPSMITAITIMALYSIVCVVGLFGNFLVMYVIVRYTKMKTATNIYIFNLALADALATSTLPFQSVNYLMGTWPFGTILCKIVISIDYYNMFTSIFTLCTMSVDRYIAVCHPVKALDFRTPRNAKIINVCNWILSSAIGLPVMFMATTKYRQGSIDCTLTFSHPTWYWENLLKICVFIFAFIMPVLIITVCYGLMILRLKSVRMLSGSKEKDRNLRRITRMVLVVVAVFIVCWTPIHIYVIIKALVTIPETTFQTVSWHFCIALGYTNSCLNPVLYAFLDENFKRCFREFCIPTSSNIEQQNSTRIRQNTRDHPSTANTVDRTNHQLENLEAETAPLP

[6] = target: T1, Kappa-type opioid receptor; experiment: Agonist activity at human KOR expressed in CHO cells by [35S]GTPgammaS binding assay relative to U-69593; assay type: functional, cell-based
[7] = target: T3, Delta-type opioid receptor (Homo sapiens, UniProt P41143); experiment: Agonist activity at human DOR expressed in CHO cells by [35S]GTPgammaS binding assay; assay type: functional, cell-based
T3 sequence (P41143 whole entry): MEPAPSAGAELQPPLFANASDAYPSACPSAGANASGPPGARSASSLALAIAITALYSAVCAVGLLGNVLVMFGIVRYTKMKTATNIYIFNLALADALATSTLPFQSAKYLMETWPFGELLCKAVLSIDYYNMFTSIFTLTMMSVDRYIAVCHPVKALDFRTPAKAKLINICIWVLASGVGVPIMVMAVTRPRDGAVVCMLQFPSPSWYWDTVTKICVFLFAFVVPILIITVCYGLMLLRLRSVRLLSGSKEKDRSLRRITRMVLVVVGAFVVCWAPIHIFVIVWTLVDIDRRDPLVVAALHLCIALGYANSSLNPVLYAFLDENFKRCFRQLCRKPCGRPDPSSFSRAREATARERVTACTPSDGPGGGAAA

Mu-type opioid receptor [8] = target: T2, Mu-type opioid receptor; experiment: Agonist activity at human MOR expressed in CHO cells by [35S]GTPgammaS binding assay relative to DAMGO; assay type: functional, cell-based
[9] = target: T3, Delta-type opioid receptor; experiment: Agonist activity at human DOR expressed in CHO cells by [35S]GTPgammaS binding assay relative to DPDPE; assay type: functional, cell-based

Chain of Delta-type opioid receptor (Mus musculus, UniProt P32300) (P32300 whole entry): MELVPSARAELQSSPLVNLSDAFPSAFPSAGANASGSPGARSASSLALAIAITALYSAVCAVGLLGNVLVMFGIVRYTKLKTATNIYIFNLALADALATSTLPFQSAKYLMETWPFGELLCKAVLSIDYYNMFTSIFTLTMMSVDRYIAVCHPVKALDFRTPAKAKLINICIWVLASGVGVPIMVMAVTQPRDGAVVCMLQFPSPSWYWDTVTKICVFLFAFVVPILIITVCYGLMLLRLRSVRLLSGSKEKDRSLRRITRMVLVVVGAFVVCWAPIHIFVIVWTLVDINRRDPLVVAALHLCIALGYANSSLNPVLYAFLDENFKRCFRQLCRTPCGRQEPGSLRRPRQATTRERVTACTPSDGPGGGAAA

| SMILES | pKi [1] | pKi (Mu-type opioid receptor [2]) | pKi [3] | pEC50 [4] | pEC50 (Mu-type opioid receptor [5]) | Emax [6] | pEC50 [7] | Emax (Mu-type opioid receptor [8]) | Emax [9] |
| --- | --- | --- | --- | --- | --- | --- | --- | --- | --- |
| C[C@@]1(c2ccccc2O)O[C@H]2CO[C@@H]3N2[C@H]1O[C@]3(C)c1ccccc1O | < 6.00 | < 6.00 | < 6.00 |  |  |  |  |  |  |
| C[C@]1(c2ccccc2O)O[C@H]2CO[C@@H]3N2[C@H]1O[C@]3(C)c1ccccc1O | < 6.00 | < 6.00 | < 6.00 |  |  |  |  |  |  |
| C[C@@]1(c2ccccc2O)O[C@H]2CO[C@@H]3N2[C@H]1O[C@@]3(C)c1ccccc1O | < 6.00 | < 6.00 | < 6.00 |  |  |  |  |  |  |
| C[C@@]1(c2ccc(O)cc2)O[C@H]2CO[C@H]3CO[C@@H]1N32 | < 6.00 | < 6.00 | < 6.00 |  |  |  |  |  |  |
| C[C@]1(c2ccc(O)cc2)O[C@H]2CO[C@@H]3N2[C@H]1O[C@]3(C)c1ccc(O)cc1 | < 6.00 | < 6.00 | < 6.00 |  |  |  |  |  |  |
| C[C@@]1(c2ccc(O)cc2)O[C@@H]2N3[C@H]1O[C@@](C)(c1ccc(O)cc1)[C@@H]3O[C@@]2(C)c1ccc(O)cc1 | < 6.00 | < 6.00 | < 6.00 |  |  |  |  |  |  |
| C[C@@]1(c2ccc(O)cc2)O[C@@H]2N3[C@H]1O[C@](C)(c1ccc(O)cc1)[C@@H]3O[C@]2(C)c1ccc(O)cc1 | < 6.00 | < 6.00 | < 6.00 |  |  |  |  |  |  |
| C[C@@]1(c2ccccc2O)O[C@H]2CO[C@H]3CO[C@@H]1N32 | < 6.00 | < 6.00 | < 6.00 |  |  |  |  |  |  |
| C[C@@]1(c2ccc(O)cc2)O[C@H]2CO[C@@H]3N2[C@H]1O[C@]3(C)c1ccc(O)cc1 | < 6.00 | < 6.00 | < 6.00 |  |  |  |  |  |  |
| C[C@@]1(c2ccccc2O)O[C@@H]2N3[C@H](CO[C@H]31)O[C@]2(C)c1ccccc1O | 7.05 | 7.69 | 8.04 | 8.00 | 7.24 | 131% | 7.28 | 89.2% | 73.6% |
| C[C@]1(c2ccc(O)cc2)O[C@H]2CO[C@H]3CO[C@@H]1N32 | < 6.00 | < 6.00 | < 6.00 |  |  |  |  |  |  |
| C[C@]1(c2ccccc2O)O[C@H]2CO[C@H]3CO[C@@H]1N32 | < 6.00 | < 6.00 | < 6.00 |  |  |  |  |  |  |
| C[C@@]1(c2ccc(O)cc2)O[C@@H]2N3[C@H]1O[C@](C)(c1ccc(O)cc1)[C@@H]3O[C@@]2(C)c1ccc(O)cc1 | < 6.00 | < 6.00 | < 6.00 |  |  |  |  |  |  |
| C[C@@]1(c2ccc(O)cc2)O[C@H]2CO[C@@H]3N2[C@H]1O[C@@]3(C)c1ccc(O)cc1 | < 6.00 | < 6.00 | < 6.00 |  |  |  |  |  |  |
| C[C@@]1(c2ccccc2O)O[C@@H]2N3[C@H]1O[C@](C)(c1ccccc1O)[C@@H]3O[C@]2(C)c1ccccc1O | < 6.00 | < 6.00 | < 6.00 |  |  |  |  |  |  |
| C[C@@]1(c2ccccc2O)O[C@@H]2N3[C@H]1O[C@](C)(c1ccccc1O)[C@@H]3O[C@@]2(C)c1ccccc1O | < 6.00 | < 6.00 | < 6.00 |  |  |  |  |  |  |
| C[C@@]1(c2ccccc2O)O[C@@H]2N3[C@H]1O[C@@](C)(c1ccccc1O)[C@@H]3O[C@@]2(C)c1ccccc1O | < 6.00 | < 6.00 | < 6.00 |  |  |  |  |  |  |
| C[C@@]1(c2ccc(O)cc2)O[C@@H]2N3[C@H](CO[C@H]31)O[C@]2(C)c1ccc(O)cc1 | < 6.00 | < 6.00 | < 6.00 |  |  |  |  |  |  |
